Assay results as given in patent US8957045B2, “Nucleoside phosphoramidates” (Gilead Pharmasset LLC, priority 2008, dated 2015).
Read-outs that look alike come from different tables or passages of the source.

Assays:
[1] = test system: HCV replicon RNA-containing Huh7 cells (clone A cells); experiment: HCV replicon assay; assay type: cell-based; settings: 4 days incubation, replicon RNA by RT-PCR, EC90 = 1-log10 reduction (ΔCt of 3.3), read-out: CloneA EC90
Procedure: HCV replicon RNA-containing Huh7 cells (clone A cells; Apath, LLC, St. Louis, Mo.) were kept at exponential growth in Dulbecco's modified Eagle's medium (high glucose) containing 10% fetal bovine serum, 4 mM L-glutamine and 1 mM sodium pyruvate, 1× nonessential amino acids, and G418 (1,000 μg/ml). Antiviral assays were performed in the same medium without G418. Cells were seeded in a 96-well plate at 1,500 cells per well, and test compounds were added immediately after seeding. Incubation time 4 days. At the end of the incubation step, total cellular RNA was isolated (RNeasy 96 kit; Qiagen). Replicon RNA and an internal control (TaqMan rRNA control reagents; Applied Biosystems) were amplified in a single-step multiplex RT-PCR protocol as recommended by the manufacturer. The HCV primers and probe were designed with Primer Express software (Applied Biosystems) and covered highly conserved 5′-untranslated region (UTR) sequences (sense primer: 5′-AGCCATGGCGTTAGTA(T)GAGTGT-3′ (SEQ ID NO:1); antisense primer: 5′-TTCCGCAGACCΔCTATGG-3′ (SEQ ID NO:2); and probe: 5′-FAM-[…]-TAMRA-3′ (SEQ ID NO:3)).
To express the antiviral effectiveness of a compound, the threshold RT-PCR cycle of the test compound was subtracted from the average threshold RT-PCR cycle of the no-drug control (ΔCtHCV). A ΔCt of 3.3 equals a 1-log 10 reduction (equal to the 90% effective concentration [EC90]) in replicon RNA levels. The cytotoxicity of the test compound could also be expressed by calculating the ΔCTRNA values. The ΔΔCt specificity parameter could then be introduced (ΔCtHCV-ΔCtRNA), in which the levels of HCV RNA are normalized for the rRNA levels and calibrated against the no-drug control.

Row | Structure (SMILES) | EC90 ([1]; Hepatitis C virus, Huh-7, 96 h) [nM] | EC90 [1] [nM] | melting point [°C]
1 | COc1nc(N)nc2c1ncn2[C@@H]1O[C@H](COP(=O)(N[C@@H](C)C(=O)OC(C)C)Oc2ccccc2)[C@@H](O)[C@@]1(C)F (stereo partly drawn) [Compound 11, (2S)-isopropyl 2-((((2R,3R,4R,5R)-5-(2-amino-6-methoxy-9H-purin-9-yl)-4-fluoro-3-hydroxy-4-methyltetrahydrofuran-2-yl)methoxy) (phenoxy)phosphorylamino)propanoate] | 20 | – | –
2 | COC(=O)[C@H](C)NP(=O)(OC[C@H]1O[C@@H](n2cnc3c(N4CCC4)nc(N)nc32)[C@](C)(F)[C@@H]1O)Oc1ccccc1 (stereo partly shown) [Compound 12] | – | 70 | –
3 | C[C@H](NP(=O)(OC[C@H]1O[C@@H](n2cnc3c(O)nc(N)nc32)[C@](C)(F)[C@@H]1O)Oc1ccccc1)C(=O)OC1CCCC1 (stereo partly drawn) [Compound 14, (2S)-cyclopentyl 2-((((2R,3R,4R,5R)-5-(2-amino-6-hydroxy-9H-purin-9-yl)-4-fluoro-3-hydroxy-4-methyltetrahydrofuran-2-yl)methoxy) (phenoxy)phosphorylamino)propanoate] | 130 | – | 133 to 150
